From US9822103B2, “Inhibitors of lysine methyl transferase” (priority 2013, dated 2017) come the findings set out here.

Some results are limits rather than exact numbers.

For the assay, the target named is recombinant EZH2-641F complex (EZH2 Y641F/EED/SUZ12/RbAp48/AEBP2) (Homo sapiens (Human), UniProt Q15910, Y641F). The assay is described as follows: EZH2 Histone Methyl Transferase Assay (scintillation proximity assay). The format is biochemical. To be noted: 350 nM histone peptide substrate, 500 nM 3H-SAM, 3 hours room temperature. The gist of the method: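 Radiometric SPA with EZH2 Y641F/EED/SUZ12/RbAp48/AEBP2 complex (5 nM pure or 15 nM in-house), 350 nM biotinylated K(Me2) histone peptide and 500 nM [3H]-SAM in Tris pH 9.0, 3 h at room temperature. Compounds were tested at eleven concentrations; EC50 came from non-linear regression.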
Background: In a scintillation proximity assay essentially only radioactivity close to the scintillant gives light.

For orientation: IC50 means the point on the concentration scale where inhibition reaches its midpoint.

Sequence of recombinant EZH2-641F complex (EZH2 Y641F/EED/SUZ12/RbAp48/AEBP2) (Q15910 whole entry Y641F): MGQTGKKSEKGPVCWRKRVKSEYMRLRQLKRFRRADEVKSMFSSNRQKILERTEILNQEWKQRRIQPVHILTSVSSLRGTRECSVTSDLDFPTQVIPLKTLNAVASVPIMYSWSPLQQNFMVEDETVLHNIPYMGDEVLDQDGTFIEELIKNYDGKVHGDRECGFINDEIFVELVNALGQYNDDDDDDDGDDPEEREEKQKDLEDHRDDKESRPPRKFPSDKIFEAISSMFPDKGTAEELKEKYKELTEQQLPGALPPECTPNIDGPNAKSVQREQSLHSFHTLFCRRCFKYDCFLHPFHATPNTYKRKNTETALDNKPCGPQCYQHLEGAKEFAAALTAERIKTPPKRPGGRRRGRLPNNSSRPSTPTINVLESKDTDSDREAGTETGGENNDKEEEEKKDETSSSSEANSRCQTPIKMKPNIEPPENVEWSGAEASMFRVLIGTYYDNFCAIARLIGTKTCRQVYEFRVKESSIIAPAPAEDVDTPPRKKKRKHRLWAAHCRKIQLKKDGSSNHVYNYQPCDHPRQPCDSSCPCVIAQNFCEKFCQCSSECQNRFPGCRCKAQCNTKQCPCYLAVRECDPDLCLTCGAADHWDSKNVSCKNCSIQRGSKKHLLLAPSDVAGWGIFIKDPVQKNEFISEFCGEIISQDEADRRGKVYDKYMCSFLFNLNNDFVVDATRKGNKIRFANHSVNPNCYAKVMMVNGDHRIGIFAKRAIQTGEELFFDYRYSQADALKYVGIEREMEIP
Sequence of recombinant EZH2-641F complex (EZH2 Y641F/EED/SUZ12/RbAp48/AEBP2) (O75530 whole entry partner): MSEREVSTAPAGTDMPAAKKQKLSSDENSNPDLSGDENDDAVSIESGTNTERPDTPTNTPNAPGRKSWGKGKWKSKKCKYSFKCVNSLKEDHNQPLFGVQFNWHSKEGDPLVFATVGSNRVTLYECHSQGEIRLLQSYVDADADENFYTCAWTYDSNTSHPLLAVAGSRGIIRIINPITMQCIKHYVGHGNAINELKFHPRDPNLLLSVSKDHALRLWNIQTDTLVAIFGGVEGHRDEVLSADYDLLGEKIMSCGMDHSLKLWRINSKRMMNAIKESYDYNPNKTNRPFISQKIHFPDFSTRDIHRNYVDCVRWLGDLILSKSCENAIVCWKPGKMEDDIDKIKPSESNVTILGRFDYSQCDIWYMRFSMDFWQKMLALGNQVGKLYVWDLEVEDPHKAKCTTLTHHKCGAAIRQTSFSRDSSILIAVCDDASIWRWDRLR
Sequence of recombinant EZH2-641F complex (EZH2 Y641F/EED/SUZ12/RbAp48/AEBP2) (Q15022 whole entry partner): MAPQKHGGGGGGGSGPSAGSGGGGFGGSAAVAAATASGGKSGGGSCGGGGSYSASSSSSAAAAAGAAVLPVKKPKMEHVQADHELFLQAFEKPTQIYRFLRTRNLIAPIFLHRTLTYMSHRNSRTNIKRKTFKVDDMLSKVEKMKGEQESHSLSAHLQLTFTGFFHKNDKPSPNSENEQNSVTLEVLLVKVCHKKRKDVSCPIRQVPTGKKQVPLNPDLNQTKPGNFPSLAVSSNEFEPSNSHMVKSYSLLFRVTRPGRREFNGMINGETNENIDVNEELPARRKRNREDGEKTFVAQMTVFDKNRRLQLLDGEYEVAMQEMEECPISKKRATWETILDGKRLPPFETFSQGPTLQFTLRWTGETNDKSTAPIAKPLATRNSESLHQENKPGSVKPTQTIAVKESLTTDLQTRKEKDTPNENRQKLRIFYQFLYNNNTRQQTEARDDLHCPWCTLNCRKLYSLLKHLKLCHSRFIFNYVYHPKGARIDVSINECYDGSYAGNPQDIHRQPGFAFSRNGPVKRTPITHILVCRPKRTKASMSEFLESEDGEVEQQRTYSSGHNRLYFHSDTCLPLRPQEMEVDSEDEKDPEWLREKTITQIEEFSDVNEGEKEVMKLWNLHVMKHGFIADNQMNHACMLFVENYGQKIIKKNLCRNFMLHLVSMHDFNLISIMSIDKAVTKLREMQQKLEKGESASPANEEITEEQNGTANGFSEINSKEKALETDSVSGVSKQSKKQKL
Sequence of recombinant EZH2-641F complex (EZH2 Y641F/EED/SUZ12/RbAp48/AEBP2) (Q09028 whole entry partner): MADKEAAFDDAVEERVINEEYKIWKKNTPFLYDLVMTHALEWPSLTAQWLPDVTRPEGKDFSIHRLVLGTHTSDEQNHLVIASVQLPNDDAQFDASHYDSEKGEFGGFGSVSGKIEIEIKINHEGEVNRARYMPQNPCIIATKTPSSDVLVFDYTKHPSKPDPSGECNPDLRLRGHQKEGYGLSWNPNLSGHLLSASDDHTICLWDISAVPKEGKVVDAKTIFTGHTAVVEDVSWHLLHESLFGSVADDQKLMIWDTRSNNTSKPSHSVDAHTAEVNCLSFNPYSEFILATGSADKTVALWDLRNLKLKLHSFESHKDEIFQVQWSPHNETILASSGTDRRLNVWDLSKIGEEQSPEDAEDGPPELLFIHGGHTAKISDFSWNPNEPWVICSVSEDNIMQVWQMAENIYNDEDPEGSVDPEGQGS
Sequence of recombinant EZH2-641F complex (EZH2 Y641F/EED/SUZ12/RbAp48/AEBP2) (Q6ZN18 whole entry partner): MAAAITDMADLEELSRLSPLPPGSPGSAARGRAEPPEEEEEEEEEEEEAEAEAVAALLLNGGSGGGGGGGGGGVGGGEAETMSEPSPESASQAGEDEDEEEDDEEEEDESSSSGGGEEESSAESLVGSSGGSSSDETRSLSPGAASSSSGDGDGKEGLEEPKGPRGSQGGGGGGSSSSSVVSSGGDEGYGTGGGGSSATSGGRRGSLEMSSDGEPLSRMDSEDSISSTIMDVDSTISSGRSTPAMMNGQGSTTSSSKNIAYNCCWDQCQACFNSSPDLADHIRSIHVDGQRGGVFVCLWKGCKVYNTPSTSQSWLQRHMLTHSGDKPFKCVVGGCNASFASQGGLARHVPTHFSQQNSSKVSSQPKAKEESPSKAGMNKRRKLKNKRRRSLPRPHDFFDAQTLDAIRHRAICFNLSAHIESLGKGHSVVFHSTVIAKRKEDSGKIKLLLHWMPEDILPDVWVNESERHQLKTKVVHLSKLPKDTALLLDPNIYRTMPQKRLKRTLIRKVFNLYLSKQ

Regarding `Cc1cc(C)c(CNC(=O)c2cc3c(c(-c4ccc(N5CCNCC5)nc4)c2)OC(C(C)C)C3)c(=O)[nH]1` (centres unmarked) [Example 80, N-((4,6-Dimethyl-2-oxo-1,2-dihydropyridin-3-yl)methyl)-2-isopropyl-7-(6-(piperazin-1-yl)pyridin-3-yl)-2,3-dihydrobenzofuran-5-carboxamide], the IC50 was over 1000 nM.

For the molecule `CC1=C(C)Cc2cc(C(=O)NCc3c(C)cc(C)[nH]c3=O)cc(Br)c2OC1` [Example 81, 9-Bromo-N-((4,6-dimethyl-2-oxo-1,2-dihydropyridin-3-yl)methyl)-3,4-dimethyl-2,5-dihydrobenzo[b]oxepine-7-carboxamide], the IC50 was over 1000 nM.

As to `C=C(C)C1(C)Cc2cc(C(=O)NCc3c(C)cc(C)[nH]c3=O)cc(Br)c2O1` (centres unmarked) [Example 82, 7-Bromo-N-((4,6-dimethyl-2-oxo-1,2-dihydropyridin-3-yl)methyl)-2-methyl-2-(prop-1-en-2-yl)-2,3-dihydrobenzofuran-5-carboxamide], the IC50 is over 1000 nM.

With `C=C(C)C1(C)Cc2cc(C(=O)NCc3c(C)cc(C)[nH]c3=O)cc(-c3ccc(OC)nc3)c2O1` (centres unmarked) [Example 83, N-((4,6-dimethyl-2-oxo-1,2-dihydropyridin-3-yl)methyl)-7-(6-methoxypyridin-3-yl)-2-methyl-2-(prop-1-en-2-yl)-2,3-dihydrobenzofuran-5-carboxamide], the IC50 is 500 to 1000 nM.

On to `CCCc1cc(C)[nH]c(=O)c1CNC(=O)c1cc(Br)c2c(c1)CC(C)=C(C)CO2` [Example 86, 9-Bromo-3,4-dimethyl-N-((6-methyl-2-oxo-4-propyl-1,2-dihydropyridin-3-yl)methyl)-2,5-dihydrobenzo[b]oxepine-7-carboxamide], for which the IC50 is over 1000 nM.

For the molecule `C=CC1COc2cc(C(=O)NCc3c(C)cc(C)[nH]c3=O)cc(Br)c2O1` (centres unmarked) [Example 90, 8-Bromo-N-((4,6-dimethyl-2-oxo-1,2-dihydropyridin-3-yl)methyl)-2-vinyl-2,3-dihydrobenzo[b][1,4]dioxine-6-carboxamide], the IC50 is over 1000 nM.

On to `CCC1COc2cc(C(=O)NCc3c(C)cc(C)[nH]c3=O)cc(Br)c2O1` (centres unmarked) [Example 91, 8-Bromo-N-((4,6-dimethyl-2-oxo-1,2-dihydropyridin-3-yl)methyl)-2-ethyl-2,3-dihydrobenzo[b][1,4]dioxine-6-carboxamide], for which the IC50 was over 1000 nM.

`CCCc1cc(C)[nH]c(=O)c1CNC(=O)c1cc2c(c(-c3ccc(N4CCN(C(C)C)CC4)nc3)c1)OC(C)(C(C)C)C2` (centres unmarked) [Example 93, 2-Isopropyl-7-(6-(4-isopropylpiperazin-1-yl)pyridin-3-yl)-2-methyl-N-((6-methyl-2-oxo-4-propyl-1,2-dihydropyridin-3-yl)methyl)-2,3-dihydrobenzofuran-5-carboxamide]: the IC50 is under 500 nM.
